One test concerns colitis symptoms. The conditions noted are these: eight weeks of treatment; cited from earlier work.
For test [1], the target named is T1, recombinant human LTA4 hydrolase (Homo sapiens, UniProt P09960).
T1 construct: A human LTA4 hydrolase full-length cDNA clone (NM_000895) was purchased from OriGene Technologies; made in house; host or cells: Escherichia coli BL21-AI
T1 sequence (P09960 1-611): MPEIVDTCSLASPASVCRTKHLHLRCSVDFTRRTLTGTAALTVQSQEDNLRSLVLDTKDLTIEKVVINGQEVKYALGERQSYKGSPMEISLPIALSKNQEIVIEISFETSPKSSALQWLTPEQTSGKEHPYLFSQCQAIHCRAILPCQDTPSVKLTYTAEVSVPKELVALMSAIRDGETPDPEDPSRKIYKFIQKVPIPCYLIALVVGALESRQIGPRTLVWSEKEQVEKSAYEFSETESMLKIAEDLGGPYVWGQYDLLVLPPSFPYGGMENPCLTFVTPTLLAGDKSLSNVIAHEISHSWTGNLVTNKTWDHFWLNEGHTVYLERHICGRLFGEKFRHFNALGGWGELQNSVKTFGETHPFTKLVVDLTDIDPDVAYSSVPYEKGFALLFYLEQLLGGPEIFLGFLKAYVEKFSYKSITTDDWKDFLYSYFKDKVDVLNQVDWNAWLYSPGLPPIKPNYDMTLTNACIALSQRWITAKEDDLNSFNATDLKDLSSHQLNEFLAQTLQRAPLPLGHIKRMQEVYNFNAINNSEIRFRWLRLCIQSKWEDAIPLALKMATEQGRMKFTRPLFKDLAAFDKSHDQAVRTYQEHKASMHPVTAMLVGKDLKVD
The test is described as follows: In vitro assay testing inhibitory activity against purified recombinant human LTA4 hydrolase (LTB4 formed measured by LC-MS/MS). The class given is biochemical. To be noted: purified recombinant human LTA4 hydrolase 200 nM, LTA4 2 μM, 120 sec at room temperature; read-out: AvgIC50.
Method: The compounds of the invention were incubated in a series of dilutions with 200 nM of recombinant enzyme in assay buffer (100 mM Tris-HCl, 100 mM NaCl, 5 mg/ml fatty-acid free BSA, 10% DMSO, pH 8.0) for 10 min at room temperature to allow binding between LTA4 hydrolase and the inhibitors. LTA4 was prepared by alkaline hydrolysis of LTA4 methyl ester (Biomol, Plymouth Meeting, Pa., or Cayman Chemicals, Ann Arbor, Mich.). A solution of 10 μg of the ester was dried under a nitrogen stream and redissolved in 60 μl of a solution of 80% acetone and 20% 0.25 M NaOH. After incubation for 40 min at room temperature the resulting approximately 500 mM tock of LTA4 was kept at −80° C. for no more than a few days prior to use.
Immediately before the assay, LTA4 was diluted to a concentration of 10 μM in assay buffer (without DMSO) and added to the reaction mixture to a final concentration of 2 μM to initiate the enzyme reaction. […] The samples were then kept at 4° C. overnight to complete protein precipitation and centrifuged for 15 min at 1800 g.

In the next test the test system is human whole blood. Briefly: Ex vivo assay testing inhibitory activity in human whole blood after stimulation with calcium ionophor (LTB4 by ELISA). In kind it is cell-based. The conditions noted are these: 0.5 h, Ionomycin 20 μM, 30 min at 37° C., read-out: hWBIC50. For orientation: ELISA stands for enzyme-linked immunosorbent assay.

Each structure is given as a SMILES string. Counter-ions that a name gives are not always drawn.

Method for human whole blood: (2) Ex vivo assay testing inhibitory activity in human whole blood after stimulation with calcium ionophor.
Human blood was collected in heparin-containing Vacutainer tubes. […] Then 4 μl of a series of compound dilutions (in DMSO) were added, followed by a 15 min incubation at 37° C. with gentle shaking. After that, blood samples were stimulated by adding Ionomycin (Calbiochem) to a final concentration of 20 μM. After another incubation at 37° C. for 30 min, samples were centrifuged for 5 min at 1800 g and 4° C. Supernatants were taken and LTB4 concentrations were determined using a commercially available enzyme-linked immunosobentassay (R&D Systems, Minneapolis, Minn.) according to the manufacturer's instructions.

Turning to `CN(CCCOc1ccc(Cc2ccccc2)cc1)CCC(=O)O.Cl` [SC57461], the “colitis symptoms in a primate model” value in the test on colitis symptoms was “significantly improved colitis symptoms”.
As to `c1csc(-c2ccc(Cc3ccc(OC[C@@H]4CCCN4)cc3)cc2)c1` [Example 117, (S)-2-[4-(2-thiophen-benzyl)-phenoxymethyl]-pyrrolidine hydrogen chloride salt], the IC50 (in test [1]; in the test with human whole blood) was below 5 µM in each case.
Take `Cc1ccc(Oc2ccc(OC[C@@H]3CCCN3CCCC(=O)O)cc2)cc1` [Example 37, 4-[(S)-2-(4-p-Tolyloxy-phenoxymethyl)-pyrrolidin-1-yl]-butylic acid HCl]: the IC50 in test [1] was below 5 µM.
In the case of `O=C(O)CN1CCC[C@H]1COc1ccc(Cc2ccccc2)cc1` [Example 35, [(S)-2-(4-Benzyl-phenoxymethyl)-pyrrolidin-1-yl]-acetic acid TFA salt], the IC50 in test [1] fell in the range of 5 to 20 µM.

The values above are taken from US7402684B2, “Biaryl substituted heterocycle inhibitors of LTA4H for treating inflammation” (deCODE genectics ehf., priority 2005, dated 2008).
